The text below walks through data of paper PMC4091635 (Bioorganic & medicinal chemistry, 2014).

The subject of this assay is transformed PSC (human pancreatic stellate cells). The assay can be described thus: AlamarBlue Cell Viability Assay, PSC proliferation. The class given is cell-based. Particulars: mean of at least three independent experiments, NE: No effect. (In general: Resazurin is reduced to fluorescent resorufin, in cell work by metabolically active cells.)

For `COc1cc(OC)c2c(=O)cc(-c3ccc(O)cc3)oc2c1` [Compound 6, 2-(4-Hydroxy-phenyl)-5,7-dimethoxy-chromen-4-one], the “Inhibitory Effect (%) 20 μM” value was “no significant antiproliferative effect”.
